Data from ChEMBL document CHEMBL3045884, “Synthesis, characterization, anticancer, and antioxidant activity of some new thiazolidin-4-ones in MCF-7 cells” (Med Chem Res, 2013).
Values after ≈ are worked out from the molar mass of the structure shown. Active and inactive are the calls of the source. The rule behind the calls is not given here.

Tests used:
MCF7 [1] = experiment: Induction of apoptotic DNA fragmentation in Homo sapiens (human) MCF-7 cells assessed as increase in tail length at 0.1 uM after 24 hr by comet assay; format: functional, cell-based
MCF7 [2] = experiment: Induction of apoptotic DNA fragmentation in Homo sapiens (human) MCF-7 cells assessed as increase in olive tail moment at 0.1 uM after 24 hr by comet assay; format: functional, cell-based
MCF7 [3] = experiment: Induction of apoptotic DNA fragmentation in Homo sapiens (human) MCF-7 cells assessed as formation of comets at 54 ug/ml after 24 hr by comet assay; format: functional, cell-based
MCF7 [4] = experiment: Anticancer activity against Homo sapiens (human) MCF-7 cells assessed as inhibition of cell survival after 24 hr by MTT assay; format: functional, cell-based; details: MCF7, 24 h
MCF7 [5] = experiment: Anticancer activity against Homo sapiens (human) MCF-7 cells assessed as cell survival at 1 ug/ml after 24 hr by MTT assay (reference value: 100%); format: functional; details: MCF7, 24 h, read-out: Survival
MCF7 [6] = experiment: Anticancer activity against Homo sapiens (human) MCF-7 cells assessed as cell survival at 100 ug/ml after 24 hr by MTT assay (reference value: 100%); format: functional; details: MCF7, 24 h, read-out: Survival
MCF7 [7] = experiment: Anticancer activity against Homo sapiens (human) MCF-7 cells assessed as cell survival at 0.1 ug/ml after 24 hr by MTT assay (reference value: 100%); format: functional; details: MCF7, 24 h, read-out: Survival
MCF7 [8] = experiment: Anticancer activity against Homo sapiens (human) MCF-7 cells assessed as cell survival at 10 ug/ml after 24 hr by MTT assay (reference value: 100%); format: functional; details: MCF7, 24 h, read-out: Survival
[9] = Antioxidant activity assessed as ABTS radical scavenging activity after 20 min by ELISA plate reader analysis; format: functional
[10] = tested on: Radical scavenging activity; experiment: Antioxidant activity assessed as DPPH radical scavenging activity after 20 min by ELISA plate reader analysis; format: functional
MCF7 [11] = experiment: Induction of apoptotic DNA fragmentation in Homo sapiens (human) MCF-7 cells assessed as formation of comets at 50 ug/ml after 24 hr by comet assay; format: functional, cell-based
MCF7 [12] = experiment: Induction of apoptotic DNA fragmentation in Homo sapiens (human) MCF7 cells assessed as increase in tail length after 24 hr by comet assay; format: functional, cell-based
MCF7 [13] = experiment: Induction of apoptotic DNA fragmentation in Homo sapiens (human) MCF-7 cells assessed as increase in olive tail moment after 24 hr by comet assay; format: functional, cell-based

Row | SMILES | Activity (MCF7 [1]) | Activity (MCF7 [2]) | Activity (MCF7 [3]) | IC50 (MCF7 [4]) | viability at 1 µg/mL (MCF7 [5]) | viability at 100 µg/mL (MCF7 [6]) | viability at 0.1 µg/mL (MCF7 [7]) | viability at 10 µg/mL (MCF7 [8]) | IC50 [9] | IC50 [10] | Activity (MCF7 [11]) | Activity (MCF7 [12]) | Activity (MCF7 [13])
1 | COc1cccc2c1C(=O)c1c(O)c3c(c(O)c1C2=O)C[C@@](O)(C(=O)CO)C[C@@H]3O[C@H]1C[C@H](N)[C@H](O)[C@H](C)O1 | Active | Active | Active |  |  |  |  |  |  |  |  |  | 
2 | COc1ccc(-c2n[nH]cc2C2SCC(=O)N2n2c(S)nnc2COc2ccc(C)cc2)cc1 (stereo not given) |  |  |  | 78 µg/mL (≈ 158 µM) | 95.4% | 43.7% | 95% | 90.2% |  |  |  |  | 
3 | COc1ccc(-c2n[nH]cc2C2SCC(=O)N2n2c(S)nnc2COc2ccccc2C)cc1 (stereo not given) |  |  |  | 29 µg/mL (≈ 58.6 µM) | 87% | 25.4% | 81.5% | 84.7% | 165.78 µg/mL (≈ 335 µM) | 46.95 µg/mL (≈ 94.9 µM) | Active | Dose-dependent effect | Dose-dependent effect
4 | Cc1ccccc1OCc1nnc(S)n1N1C(=O)CSC1c1c[nH]nc1-c1ccc(Cl)cc1 (stereo not given) |  |  |  | 22 µg/mL (≈ 44.1 µM) | 80.7% | 13.2% | 70% | 67.6% | 73.03 µg/mL (≈ 146 µM) | 31.52 µg/mL (≈ 63.2 µM) | Active | Dose-dependent effect | Dose-dependent effect
5 | O=C1CSC(c2c[nH]nc2-c2ccc(F)cc2)N1n1c(S)nnc1COc1ccc2ccccc2c1 (stereo not given) |  |  |  | > 100 µg/mL | 100% | 96.5% | 100% | 99.8% |  |  |  |  | 
6 | COc1ccc(-c2n[nH]cc2C2SCC(=O)N2n2c(S)nnc2COc2ccccc2)cc1 (stereo not given) |  |  |  | 85 µg/mL (≈ 177 µM) | 100% | 46.5% | 100% | 96.8% |  |  |  |  | 
7 | O=C1CSC(c2c[nH]nc2-c2ccc(Cl)cc2)N1n1c(S)nnc1COc1ccc2ccccc2c1 (stereo not given) |  |  |  | 100 µg/mL (≈ 187 µM) | 100% | 50.7% | 99.7% | 81.4% |  |  |  |  | 
8 | O=C1CSC(c2c[nH]nc2-c2ccc(Cl)cc2)N1n1c(S)nnc1COc1cccc2ccccc12 (stereo not given) |  |  |  | 100 µg/mL (≈ 187 µM) | 70.5% | 51.8% | 101% | 60.3% |  |  |  |  | 
9 | O=C1O[C@H]([C@@H](O)CO)C(O)=C1O [ASCORBIC ACID] |  |  |  |  |  |  |  |  | 31.53 µg/mL (≈ 179 µM) | 18.74 µg/mL (≈ 106 µM) |  |  | 
10 | Cc1ccc(OCc2nnc(S)n2N2C(=O)CSC2c2c[nH]nc2-c2ccc(F)cc2)cc1 (stereo not given) |  |  |  | > 100 µg/mL | 74.7% | 71.4% | 80.8% | 87.5% |  |  |  |  | 
11 | Cc1ccccc1OCc1nnc(S)n1N1C(=O)CSC1c1c[nH]nc1-c1ccc(F)cc1 (stereo not given) |  |  |  | > 100 µg/mL | 83.1% | 62.1% | 81.4% | 92.5% |  |  |  |  | 
12 | O=C1CSC(c2c[nH]nc2-c2ccc(F)cc2)N1n1c(S)nnc1COc1ccccc1 (stereo not given) |  |  |  | 30 µg/mL (≈ 64 µM) | 69.4% | 33.6% | 65.9% | 76.5% | 143.67 µg/mL (≈ 307 µM) | 27.16 µg/mL (≈ 58 µM) | Active | Dose-dependent effect | Dose-dependent effect
